Drawing on ChEMBL document CHEMBL3243920, “Quantitative structure-activity relationships of chymotrypsin. On the predictive value of correlation equations” (J Med Chem, 1977), this text covers log1/Ki for 33 molecules.

The assay is described as follows: Inhibition of chymotrypsin (unknown origin). As to conditions: Homo sapiens.
Regarding `O=C(O)C(Cc1ccc(Br)cc1)NC(=O)C(F)(F)F` (stereo not drawn), the log1/Ki stood at 3.
For `Cc1cccc(CC(NC(=O)C(F)(F)F)C(=O)O)c1` (stereo not drawn), the log1/Ki turned out to be 2.35.
On to `NC(=O)c1ccnc2ccccc12`, for which the log1/Ki is 2.08.
`CC(=O)NCCc1ccccc1` registered a log1/Ki of 1.94.
The value for `O=CNc1cccc(Cl)c1` was 3.1; that for `CC(=O)Nc1ccccc1` was 1.89.
To `N#Cc1ccc(NC=O)cc1` belongs 1.9; to `O=C(O)C(Cc1cccc(F)c1)NC(=O)C(F)(F)F` (stereo not drawn), 2.57; to `Cc1ccc(CC(NC(=O)C(F)(F)F)C(=O)O)cc1` (stereo not drawn), 2.82.
As for `O=CNc1ccc([N+](=O)[O-])cc1`, the log1/Ki turned out to be 2.42.
To `O=CNc1ccccc1` belongs 2.4; to `NC(=O)CCCc1ccccc1`, 1.92.
Molecule `COc1cccc(NC=O)c1` registered a log1/Ki of 2.17.
To `O=CNc1ccc(Cl)cc1` belongs 3.4.
`NC(=O)Cc1ccccc1` showed a log1/Ki of 1.82.
`CCC(=O)Nc1ccccc1` registered a log1/Ki of 2.18.
`CCC(=O)NCc1ccccc1` came in with a log1/Ki of 2.2.
The molecule `NC(=O)CCc1ccccc1` returned a log1/Ki of 2.15.
`NC(=O)CCc1c[nH]c2ccccc12` showed a log1/Ki of 2.64.
Regarding `O=C(CCl)NCc1ccccc1`, the log1/Ki stood at 2.31.
Regarding `O=C(O)C(Cc1ccccc1)NC(=O)C(F)(F)F` (stereo not drawn), the log1/Ki came out at 2.1.
Molecule `CC(=O)NCCc1c[nH]c2ccccc12` registered a log1/Ki of 2.74.
As to `CC(=O)c1ccc(NC=O)cc1`, the log1/Ki stood at 1.72.
The molecule `NC(=O)c1ccccc1` showed a log1/Ki of 2.
To `O=C(CCl)NCCc1ccccc1` belongs 2.
Molecule `NC(=O)CNC(=O)c1ccccc1` gave a log1/Ki of 1.9.
Take `COC(=O)c1nc2ccccc2[nH]1`: the log1/Ki was found to be 2.25.
`Cc1ccc(NC=O)cc1` came in with a log1/Ki of 2.52.
The molecule `CC(=O)NCc1ccccc1` yielded a log1/Ki of 2.12.
Turning to `O=C(NCCc1c[nH]c2ccccc12)C(F)(F)F`, the log1/Ki was 2.92.
On to `O=C(O)C(Cc1ccc(F)cc1)NC(=O)C(F)(F)F` (stereo not drawn), for which the log1/Ki is 2.89.
`O=C(O)C(Cc1ccc(F)cc1F)NC(=O)C(F)(F)F` (stereo not drawn) came in with a log1/Ki of 2.35.
The value for `COc1ccc(NC=O)cc1` was 2.06.
